Test results: patent US7855200B2, “Method for treatment of gastric ulcers and ulcers induced by aspirin” (Council of Scientific and Industrial Research, priority 2006, dated 2010)

Experiments:
[1] = system: gastric ulcers induced by aspirin, ethanol, stress and pylorus ligation; experiment: Antigastric ulcer screening by four different models (statements in words); assay type: in vivo, albino rats; settings: summary statement
Description: The compounds taken under study for antigastric ulcer screening by four different models were selected using experimental albino rats: • 1. Aspirin induced gastric ulceration • 2. Pylorus ligated gastric ulceration • 3. Ethanol induced gastric ulceration • 4. Stress induced gastric ulceration
The commercially available drug ranitidine (sigma), Omeprazole (sigma) and sucralfate (Merck) were used as reference standard in experimental models. The Tween-80 (SD fine chemicals) was used as vehicle for the administration of the drug, which is used as control.

[2] = system: ethanol induced gastric ulcers; experiment: Ethanol induced ulcers; assay type: in vivo, albino rats; settings: rats, ethanol challenge; for Acidity Total mEg / Gastric content / pH: 4 hours after pylorus ligation
Outline: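 Rats in groups of 6, fasted 48 h, given Tween 80 (1%) vehicle, reference drugs, or test compounds at 25 mg/kg; lesions induced 1 h after ethanol challenge. Pylorus ligated under ether; 4 h later gastric contents centrifuged and total acid titrated with 0.01N NaOH.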

In the case of `COC(=O)C1OC(Oc2cc3oc(-c4ccccc4)cc(=O)c3cc2OC)C(O)C(O)C1O` (centres unmarked) [OA-5, 3,4,5-trihydroxy-6-(6-methoxy-4-oxo-2-phenyl-4-H-chromen-7-yoloxy) tetrahydro-pyran-2-carboxylicacid methyl ester], the “antiulcer activity (in words)” value ([1]; listed as Oroxyloside methyl ester) is reported as “excellent potent molecule”, the “antiulcer activity (in words)” value ([1]; listed as oroxyloside methyl ester) is reported as “potent activity” and the Inhibition % ([2]; 5 mg/kg) is reported as 30.01%. For the same compound, the “Ulcer index Mean(SE)” value ([2]; 5 mg/kg) was 46.66 (±0.80), the “Acidity Total mEg” value ([2]; 5 mg/kg) was 42.66 (±3.95) m Eg and the Gastric content ([2]; 5 mg/kg) was 4.0 (±0.45). For the same compound, the pH ([2]; 5 mg/kg) was 3.5 (±0.40), the Inhibition % ([2]; 10 mg/kg) was 35.00% and the “Ulcer index Mean(SE)” value ([2]; 10 mg/kg) was 43.33 (±5.40). The “Acidity Total mEg” value ([2]; 10 mg/kg) was 31.33 (±1.36) m Eg, the Gastric content ([2]; 10 mg/kg) was 4.2 (±0.07) and the Inhibition % ([2]; 15 mg/kg) was 60.61%. For the same compound, the “Ulcer index Mean(SE)” value ([2]; 15 mg/kg) was 26.66 (±4.71), the “Acidity Total mEg” value ([2]; 15 mg/kg) was 29.66 (±1.36) m Eg and the Gastric content ([2]; 15 mg/kg) was 4.0 (±0.82). For the same compound, the pH ([2]; 15 mg/kg) was 4.5 (±0.13), the Inhibition % ([2]; 25 mg/kg) was 82.50% and the “Ulcer index Mean(SE)” value ([2]; 25 mg/kg) was 11.66 (±4.47). The “Acidity Total mEg” value ([2]; 25 mg/kg) was 12.40 (±2.30) mEg, the Gastric content ([2]; 25 mg/kg) was 5.5 (±0.30) and the pH ([2]; 25 mg/kg) was 6.81 (±0.26). For the same compound, the Inhibition % ([2]; 50 mg/kg) was 85.00%, the “Ulcer index Mean(SE)” value ([2]; 50 mg/kg) was 10.00 (±6.23) and the “Acidity Total mEg” value ([2]; 50 mg/kg) was 18.25 (±7.10) mEg. For the same compound, the Gastric content ([2]; 50 mg/kg) was 7.4 (±0.72) and the pH ([2]; 50 mg/kg) was 4.95 (±0.43).
